# Assay results taken from patent publication US7700584B2 (Hangzhou Minsheng Pharmaceuticals Co., Ltd., priority 2004, dated 2010).
# Where a name gives a salt, the structure may show the parent alone. Read-outs that look alike come from different tables or passages of the source.
# Legend:
# [1] = test system: Bel-7402 human hepatic carcinoma; test: In vitro anti-tumor IC50 (MTT), Bel-7402; assay type: cell-based
# Procedure: (§1) (1) Single cell suspension was seeded into 96-well plates (the cells was diluted in the PRMI-1640 minimum medium to 3×10^4 cells/ml, […] diluted cells/well). […] The experiments were performed in quadruplicate.
# (§2) (2) The medium was removed. Solutions of the anti-tumor agents (50 compounds) were prepared in a freshly prepared medium at serial concentrations. […] of the solution was added into each well. Incubation was continued for 48 hours.
# (§3) (3) 20 ug of 2 mg/ml MTT was added into each well, and incubated for 4 hours.
# (§4) (4) The medium was removed from the well. The microplates were swiftly turned down to throw-off the medium. […] of DMSO was added into each well, and vortexed at room temperature for 10 minutes.
# (§5) (5) OD value (λ=570 nm) was measured with an Enzyme-Linked Detector.
# (§6) (6) The graph of cell vitality was plotted, and IC50 was calculated.
# [2] = test system: LLC mouse Lewis lung carcinoma; test: In vitro anti-tumor IC50 (MTT), LLC; assay type: cell-based; conditions: Table 4
# Procedure: as §1, §2, §3, §4, §5, §6
# [3] = test system: eight selected tumor cell lines; test: In vitro anti-tumor IC50, summary over the selected tumor cell lines; assay type: cell-based; conditions: for activity to Hela, U-937 and HL-60 cell lines (in words): Hela and U-937, also U-937 and HL-60 cell lines
# Procedure: as §1, §2, §3, §4, §5, §6
# [4] = test system: SMMC-7721 human hepatic carcinoma; test: In vitro anti-tumor IC50 (MTT), SMMC-7721; assay type: cell-based
# Procedure: as §1, §2, §3, §4, §5, §6
# [5] = test system: A-549 human lung adenocarcinoma; test: In vitro anti-tumor IC50 (MTT), A-549; assay type: cell-based
# Procedure: as §1, §2, §3, §4, §5, §6
# mouse lung cancer Lewis = test: Activity against mouse grafted lung cancer Lewis; assay type: in vivo, Kunming mice; conditions: for Inhibition rate (%) / Tumor weight: Lewis; for Tumor weight: X ± SD, n = 10
# [6] = test system: mouse grafted uterine cervix cancer U14; test: Activity against mouse grafted uterine cervix cancer U14; assay type: in vivo, Kunming mice; conditions: for Tumor weight: X ± SD, n = 10; for inhibitory effect against mouse grafted uterine cervix cancer U14 (in words): all the three concentrations, i.v., female mice
# Procedure: The experiments were performed according to “Guideline for New Drugs (Western medicines) in Pre-clinical Stages” issued by Bureau of Drug Policy & Administration of the People's Republic of China, and the relevant methods in “Methodology of Pharmaceutical Experiments”, Xu Shuyun et al. ed. 120 male Kunming mice weighting […] were allowed to grow 3 days. No abnormality was observed. The mice were routinely inoculated in oxter with mouse sarcoma S-180, and weighted 4 hrs. after inoculation. The mice were randomly divided into 12 groups, 10 mice/group. Group 1 was given 0.3 ml of physiological saline as negative control; Group 2 was given 5-FU as positive control, 0.6 mg/mouse; Group 3 was given hydroxycamptothecine as positive control, 0.02 mg/mouse. Groups 4, 5 and 6 were injected with 10% Compound 6, 0.4 ml/mouse, 0.2 ml/mouse, and 0.1 ml/mouse, respectively. Groups 7, 8 and 9 were injected with 10% Compound 8, 0.4 ml/mouse, 0.2 ml/mouse, and 0.1 ml/mouse, respectively. Groups 10, 11, and 12 were injected with 10% Compound 20, 0.4 ml/mouse, 0.2 ml/mouse, and 0.1 ml/mouse, respectively. The tested compounds were administered on the next day after inoculation, once a day on alternate days, 6 doses totally administered. On the next day after the end dose, the mice were weighed and sacrificed. After the tumor was excised, body weight and tumor weight were recorded. The tumor inhibition rate was calculated based on the following formula: [(average tumor weight of the control groups−average tumor weight of the experimental groups)/average tumor weight of the control groups]×100%. The data was processed statistically. The above experiments were repeated three times.
# The experiments were identical with the experiments for activity against mouse grafted sarcoma S-180, except the following:
# (1) the tumor cell line inoculated was mouse grafted uterine cervix cancer U14;
# (2) all the mice were female.
# [7] = Solubility in water (observation); assay type: physicochemical
# [8] = test system: influenza A virus (Jifang 90-15); test: microbe, parasite or virus in culture; assay type: cell-based
# [9] = test system: oral membrane herpes virus (VSV); assay type: cell-based
# [10] = U14, first experiment, 10 mg/kg
# [11] = U14, first experiment, 20 mg/kg
# [12] = U14, first experiment, 40 mg/kg
# [13] = U14, second experiment, 10 mg/kg
# [14] = U14, second experiment, 20 mg/kg
# [15] = U14, second experiment, 40 mg/kg
# [16] = U14, third experiment, 10 mg/kg
# [17] = U14, third experiment, 20 mg/kg
# [18] = U14, third experiment, 40 mg/kg
structure (smiles),measurement,setting,value
"CC(C)C1CC23OC1(O)C/C(=C\Nc1ccc(O)cc1)C2CCC3C (stereo not shown) [Compound 5, Curcumol p-hydroxy aniline]",IC50,"[1]; Homo sapiens, Bel-7402, Table 4, read-out: IC50 (ug/ml) against tumor cell lines, Bel-7402",0.9 µg/mL
same,IC50,"[2]; Mus musculus, Lewis lung carcinoma, read-out: IC50 (ug/ml) against tumor cell lines, LLC",3.6 µg/mL
same,inhibitory effect to all the eight selected tumor cell lines (in words),[3],strong inhibitory effect
same,IC50,"[4]; Homo sapiens, SMMC-7721, Table 4, read-out: IC50 (ug/ml) against tumor cell lines, SMMC-7721",4.3 µg/mL
same,IC50,"[5]; Homo sapiens, A549, Table 4, read-out: IC50 (ug/ml) against tumor cell lines, A-549",2 µg/mL
"CC(C)C1CC23OC1(O)C/C(=C\Nc1ccc(O)cc1)C2CCC3C (stereo not shown) [Compound 6, Curcumol p-hydroxy aniline hydrochloride]","IC50 (ug/ml) against tumor cell lines, Bel-7402","[1]; Table 4, hydrochloride",1.0 µg/mL
same,"IC50 (ug/ml) against tumor cell lines, LLC",[2]; hydrochloride,3.8 µg/mL
same,Inhibition rate (%),"mouse lung cancer Lewis; first experiment, 10 mg/kg",29.5%
same,Tumor weight,"mouse lung cancer Lewis; first experiment, 10 mg/kg",2.10 ± 0.37 g
same,Inhibition rate (%),"mouse lung cancer Lewis; first experiment, 20 mg/kg",42.6%
same,Tumor weight,"mouse lung cancer Lewis; first experiment, 20 mg/kg",1.71 ± 0.29 g
same,Inhibition rate (%),"mouse lung cancer Lewis; first experiment, 40 mg/kg",51.7%
same,Tumor weight,"mouse lung cancer Lewis; first experiment, 40 mg/kg",1.44 ± 0.31 g
same,Inhibition rate (%),"mouse lung cancer Lewis; second experiment, 10 mg/kg",25.3%
same,Tumor weight,"mouse lung cancer Lewis; second experiment, 10 mg/kg",1.80 ± 0.37 g
same,Inhibition rate (%),"mouse lung cancer Lewis; second experiment, 20 mg/kg",44.4%
same,Tumor weight,"mouse lung cancer Lewis; second experiment, 20 mg/kg",1.34 ± 0.29 g
same,Inhibition rate (%),"mouse lung cancer Lewis; second experiment, 40 mg/kg",50.6%
same,Tumor weight,"mouse lung cancer Lewis; second experiment, 40 mg/kg",1.19 ± 0.31 g
same,Inhibition rate (%),"mouse lung cancer Lewis; third experiment, 10 mg/kg",33.3%
same,Tumor weight,"mouse lung cancer Lewis; third experiment, 10 mg/kg",1.80 ± 0.37 g
same,Inhibition rate (%),"mouse lung cancer Lewis; third experiment, 20 mg/kg",47.4%
same,Tumor weight,"mouse lung cancer Lewis; third experiment, 20 mg/kg",1.42 ± 0.29 g
same,Inhibition rate (%),"mouse lung cancer Lewis; third experiment, 40 mg/kg",52.6%
same,Tumor weight,"mouse lung cancer Lewis; third experiment, 40 mg/kg",1.28 ± 0.31 g
same,inhibitory effect against mouse lung cancer Lewis,mouse lung cancer Lewis; first of three concentrations (40 mg/kg),51.6%
same,inhibitory effect against mouse lung cancer Lewis,mouse lung cancer Lewis; second of three concentrations (20 mg/kg),44.8%
same,inhibitory effect against mouse lung cancer Lewis,mouse lung cancer Lewis; third of three concentrations (10 mg/kg),29.4%
same,inhibitory effect to all the eight selected tumor cell lines (in words),[3],strong inhibitory effect
same,"IC50 (ug/ml) against tumor cell lines, SMMC-7721","[4]; Table 4, hydrochloride",4.0 µg/mL
same,Inhibition rate (%),[6]; [10],37.3%
same,Tumor weight,[6]; [10],2.2 ± 0.37 g
same,Inhibition rate (%),[6]; [11],65.0%
same,Tumor weight,[6]; [11],1.23 ± 0.29 g
same,Inhibition rate (%),[6]; [12],72.6%
same,Tumor weight,[6]; [12],0.96 ± 0.31 g
same,Inhibition rate (%),[6]; [13],32.3%
same,Tumor weight,[6]; [13],2.3 ± 0.37 g
same,Inhibition rate (%),[6]; [14],64.7%
same,Tumor weight,[6]; [14],1.20 ± 0.29 g
same,Inhibition rate (%),[6]; [15],73.5%
same,Tumor weight,[6]; [15],0.90 ± 0.31 g
same,Inhibition rate (%),[6]; [16],35.9%
same,Tumor weight,[6]; [16],2.32 ± 0.37 g
same,Inhibition rate (%),[6]; [17],63.5%
same,Tumor weight,[6]; [17],1.32 ± 0.29 g
same,Inhibition rate (%),[6]; [18],72.1%
same,Tumor weight,[6]; [18],1.01 ± 0.31 g
same,inhibitory effect against mouse grafted uterine cervix cancer U14 (in words),[6],good inhibitory effect
same,Average weight (g)-after administration,"[6]; mouse, in vivo, 10 mg/kg",22.1 g
same,Average weight (g)-after administration,"[6]; mouse, in vivo, 20 mg/kg",21.6 g
same,Average weight (g)-after administration,"[6]; mouse, in vivo, 40 mg/kg",21.6 g
same,"IC50 (ug/ml) against tumor cell lines, A-549","[5]; Table 4, hydrochloride",2.1 µg/mL
"CC(C)C1CC23OC1(O)CC(=CN1CCNCC1)C2CCC3C (stereo not shown) [Compound 7, Curcumol piperazine]","activity to Hela, U-937 and HL-60 cell lines (in words)",[3],excellent activity
"CC(C)C1CC23OC1(O)CC(=CN1CCNCC1)C2CCC3C (stereo not shown) [Compound 8, Curcumol piperazine hydrochloride]","activity to Hela, U-937 and HL-60 cell lines (in words)",[3],excellent activity
same,Inhibition rate (%),[6]; [10],35.6%
same,Tumor weight,[6]; [10],2.26 ± 0.33 g
same,Inhibition rate (%),[6]; [11],54.4%
same,Tumor weight,[6]; [11],1.60 ± 0.39 g
same,Inhibition rate (%),[6]; [12],67.2%
same,Tumor weight,[6]; [12],1.15 ± 0.36 g
same,Inhibition rate (%),[6]; [13],38.8%
same,Tumor weight,[6]; [13],2.08 ± 0.33 g
same,Inhibition rate (%),[6]; [14],55.6%
same,Tumor weight,[6]; [14],1.51 ± 0.39 g
same,Inhibition rate (%),[6]; [15],64.7%
same,Tumor weight,[6]; [15],1.20 ± 0.36 g
same,Inhibition rate (%),[6]; [16],40.1%
same,Tumor weight,[6]; [16],2.14 ± 0.33 g
same,Inhibition rate (%),[6]; [17],54.4%
same,Tumor weight,[6]; [17],1.65 ± 0.39 g
same,Inhibition rate (%),[6]; [18],65.5%
same,Tumor weight,[6]; [18],1.25 ± 0.36 g
same,inhibitory effect against mouse grafted uterine cervix cancer U14 (in words),[6],good inhibitory effect
same,inhibition rate against mouse grafted uterine cervix cancer U14,[6]; concentration above 40 mg/kg,above 60%
same,Average weight (g)-after administration,"[6]; mouse, in vivo, 10 mg/kg",21.5 g
same,Average weight (g)-after administration,"[6]; mouse, in vivo, 20 mg/kg",21.9 g
same,Average weight(g)-after administration,"[6]; mouse, in vivo, 20 mg/kg",20.9 g
same,Average weight (g)-after administration,"[6]; mouse, in vivo, 40 mg/kg",21.3 g
"C=C1CC2(OS(=O)(=O)[O-])OC3(CC2C(C)C)C(C)CCC13.[Na+] (stereo not shown) [Compound 21, Curcumol sodium sulfonate]",solubility in water (in words),[7],soluble in water
same,Average weight(g)-after administration,[6]; [10],22.1 g
same,Inhibition rate (%),[6]; [10],52.1%
same,Tumor weight,[6]; [10],1.68 ± 0.29 g
same,Average weight(g)-after administration,[6]; [11],21.0 g
same,Inhibition rate (%),[6]; [11],56.7%
same,Tumor weight,[6]; [11],1.52 ± 0.41 g
same,Average weight(g)-after administration,[6]; [12],21.1 g
same,Inhibition rate (%),[6]; [12],71.8%
same,Tumor weight,[6]; [12],0.99 ± 0.31 g
same,Average weight(g)-after administration,[6]; [13],22.5 g
same,Inhibition rate (%),[6]; [13],53.2%
same,Tumor weight,[6]; [13],1.59 ± 0.29 g
same,Average weight(g)-after administration,[6]; [14],21.1 g
same,Inhibition rate (%),[6]; [14],57.1%
same,Tumor weight,[6]; [14],1.46 ± 0.41 g
same,Average weight(g)-after administration,[6]; [15],21.0 g
same,Inhibition rate (%),[6]; [15],73.8%
same,Tumor weight,[6]; [15],0.89 ± 0.31 g
same,Average weight (g)-after administration,[6]; [16],22.0 g
same,Inhibition rate (%),[6]; [16],54.7%
same,Tumor weight,[6]; [16],1.64 ± 0.29 g
same,Average weight (g)-after administration,[6]; [17],21.0 g
same,Inhibition rate (%),[6]; [17],58.3%
same,Tumor weight,[6]; [17],1.51 ± 0.41 g
same,Average weight (g)-after administration,[6]; [18],20.1 g
same,Inhibition rate (%),[6]; [18],73.7%
same,Tumor weight,[6]; [18],0.95 ± 0.31 g
same,inhibitory effect against mouse grafted uterine cervix cancer U14 (in words),[6],good inhibitory effect
same,IC50,"[8]; Influenza A virus, CPE in MDCK cells",47.7 µg/mL
same,"SI, influenza A virus",[8]; SI = TC50/IC50,20.96
same,activity against VSV (in words),[9]; 200 μg/ml,had the activity against VSV
same,activity against VSV (in words),"[9]; first round of the primary screening, 13 samples",some activities against VSV
